# Reference: patent US20230330045A1 (priority 2020, published 2023)
# Structures can show the parent of a compound that is named as a salt. Where two headings read alike, the source gives them in different places.
# Target: eel acetylcholinesterase (AChE) (Electrophorus electricus, UniProt O42275)
# Assay: Eel AChE fluorescence assay (AMPLEX Red kit)
# Format: biochemical
# Description: Enzymatic reactions consisted of 50 μM acetylcholine, 200 μM AIVIPLEX™ Red reagent, 1 U/mL horseradish peroxidase, 0.1 U/mL choline oxidase and 0.096 U/mL acetylcholinesterase, with 30 1% DMSO. […] Control reactions lacking acetylcholinesterase but containing 5 μM H2O2 in presence of compounds were analyzed at the same wavelength to exclude compounds that display assay interference. Dose-response curves were performed in duplicate.
# [1] = eel AChE activity, at 20 μM, read-out: Percentage inhibition
# [2] = read-out: inhibition of enzyme activity compared to DMSO control (screen)
# eel acetylcholinesterase (AChE), sequence (O42275 24-633): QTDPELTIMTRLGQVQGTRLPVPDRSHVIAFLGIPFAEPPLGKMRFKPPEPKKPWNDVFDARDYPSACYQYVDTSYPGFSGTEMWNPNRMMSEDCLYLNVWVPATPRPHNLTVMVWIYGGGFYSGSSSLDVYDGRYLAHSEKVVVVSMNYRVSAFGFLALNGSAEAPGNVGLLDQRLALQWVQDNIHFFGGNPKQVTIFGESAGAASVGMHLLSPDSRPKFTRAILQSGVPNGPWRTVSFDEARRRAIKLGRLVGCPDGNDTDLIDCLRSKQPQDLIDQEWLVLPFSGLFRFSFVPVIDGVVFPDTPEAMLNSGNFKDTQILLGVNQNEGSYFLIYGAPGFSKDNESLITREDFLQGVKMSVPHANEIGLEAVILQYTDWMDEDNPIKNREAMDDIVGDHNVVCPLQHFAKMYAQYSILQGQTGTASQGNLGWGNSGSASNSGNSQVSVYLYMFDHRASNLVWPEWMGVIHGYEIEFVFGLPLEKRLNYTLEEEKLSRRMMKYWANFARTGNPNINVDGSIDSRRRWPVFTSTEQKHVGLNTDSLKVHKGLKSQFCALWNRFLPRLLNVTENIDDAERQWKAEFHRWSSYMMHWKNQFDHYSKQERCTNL
Compound,inhibition at 20 µM [1],inhibition at 20 µM [2]
COc1ccc2nc3cc(Cl)ccc3c(Nc3cc(CN4CCCC4)c(O)c(CN4CCCC4)c3)c2n1 [pyronaridine],53.6%,> 50%
CCN(CC)CCC[C@H](C)Nc1c2ccc(Cl)cc2nc2ccc(OC)cc12 [quinacrine hydrochloride],61.8%,> 50%
